Measurements taken from patent publication US20240002463A1, “CHEMOGENETIC RECEPTORS AND METHODS OF MAKING AND USING” (Howard Hughes Medical Institute, priority 2022, published 2024).
Where two headings read alike, the source gives them in different places.

Legend:
α7-5HT3 [1] = molecular target: T1, α7-5HT3 (Homo sapiens, UniProt P36544, M226I/T225I); assay: agonist potency/activity at unmodified α7-5HT3 chimeric channel; type: cell-based; conditions: agonist activity at unmodified α7-5HT3; read-out: EC50α7-5HT3
T1 construct: expressed in transfected cells; host or cells: HEK-293 (transient transfection)

α7-GlyR = molecular target: T2, α7-GlyR (Homo sapiens, UniProt P36544); assay: agonist potency/activity at unmodified α7-GlyR chimeric channel; type: cell-based
T2 construct: expressed in transfected cells; host or cells: HEK-293 (transient transfection)

[2] = rat; estimated; cited from earlier work
[3] = tested on: hippocampal neurons expressing Gpr40; assay: patch clamp electrophysiology of hippocampal neurons expressing Gpr40; type: cell-based, rat; conditions: 0.2 μM; FIG. 12A
Procedure: For engineered neuromodulation of neurons by fatty acids, a fatty acid […] (Gpr40) was expressed in hippocampal neurons. Neuron firing was increased in response to a fatty acid, palmitate (20 μM), as well as a synthetic Gpr40 agonist, GW9508 (0.2 μM) (FIG. 12A, 12B). For testing, embryonic rat hippocampal neurons are transfected by electroporation with a plasmid expressing GPR40 and an mCherry fluorescent protein. Then cells are plated on poly-D-lysine coated 13 mm dia #1 glass coverslips in the wells of a 24 well plates at 50,000 cells/well. Each well receives 60 μL of cell suspension plus 60 μL of NbActiv4 medium (BrainBits) and are incubated at 37 C in 5% CO2 for 4 hours for initial cell attachment. NbActiv4 media (1 mL) is then added to each well and cultures kept for the duration of the experiment. Weekly medium changes are done by replacing 0.5 mL medium from each well with fresh NbActiv4. Fluorescent cells are recorded by patch clamp electrophysiology while palmitate or GW9508 are perfused over the cells intermittently in a saline extracellular solution.

α7-5HT3 [4] = molecular target: T3, α7-5HT3 (Homo sapiens, UniProt P36544); assay: agonist potency/activity at unmodified α7-5HT3 chimeric channel; type: cell-based
T3 construct: expressed in transfected cells; host or cells: HEK-293 (transient transfection)

dopamine release = conditions: cited from earlier work
[5] = cited from earlier work

T3 sequence (P36544 with tags, fused parts or gaps T225I/M226I): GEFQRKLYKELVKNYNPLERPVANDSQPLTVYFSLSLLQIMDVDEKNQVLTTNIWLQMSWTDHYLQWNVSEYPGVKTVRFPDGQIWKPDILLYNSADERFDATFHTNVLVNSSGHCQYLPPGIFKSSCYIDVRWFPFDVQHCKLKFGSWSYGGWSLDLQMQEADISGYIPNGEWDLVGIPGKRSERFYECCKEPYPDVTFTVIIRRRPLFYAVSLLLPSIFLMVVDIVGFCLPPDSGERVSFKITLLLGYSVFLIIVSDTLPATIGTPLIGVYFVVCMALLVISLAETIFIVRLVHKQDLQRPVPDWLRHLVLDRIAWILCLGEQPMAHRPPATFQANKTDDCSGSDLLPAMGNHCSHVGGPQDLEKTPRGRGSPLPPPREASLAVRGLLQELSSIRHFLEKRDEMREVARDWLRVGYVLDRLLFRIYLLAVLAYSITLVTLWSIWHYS
T1 sequence (P36544 with tags, fused parts or gaps T225I/M226I): as above
T2 sequence (P36544 with tags, fused parts or gaps): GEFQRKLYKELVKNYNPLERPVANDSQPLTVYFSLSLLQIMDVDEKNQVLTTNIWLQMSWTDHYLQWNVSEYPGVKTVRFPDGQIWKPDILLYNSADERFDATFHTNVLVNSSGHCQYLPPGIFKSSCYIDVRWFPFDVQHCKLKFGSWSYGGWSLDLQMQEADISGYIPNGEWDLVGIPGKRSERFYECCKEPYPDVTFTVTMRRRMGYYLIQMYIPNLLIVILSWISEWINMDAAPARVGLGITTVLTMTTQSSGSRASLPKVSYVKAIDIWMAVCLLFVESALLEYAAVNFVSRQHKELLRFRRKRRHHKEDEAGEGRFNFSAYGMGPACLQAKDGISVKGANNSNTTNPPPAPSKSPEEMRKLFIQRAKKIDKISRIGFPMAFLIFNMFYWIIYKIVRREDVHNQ

For C[N+](C)(C)CCO [Choline], the EC50 (α7-5HT3 [1]) was 37000 nM and the EC50 (α7-GlyR) was 103000 nM.

In the case of COC(=O)[C@H]1[C@@H](OC(=O)c2ccccc2)C[C@@H]2CC[C@H]1N2C [Cocaine], the “brain concentration maintained by self-administration” value [2] is listed as 10000 to 20000 nM.

For O=C(O)CCc1ccc(NCc2cccc(Oc3ccccc3)c2)cc1 [GW9508], the neuron firing [3] was “increased”.

For CNC(C)Cc1ccc2c(c1)OCO2 (centres unmarked) [MDMA, 3,4-Methylenedioxy-methamphetamine], the “agonist activity at unmodified chimeric receptor α7-5HT3” value (α7-5HT3 [4]) was “do not show agonist activity”.

For CCCC(C(=O)c1ccc2c(c1)OCO2)N1CCCC1 (centres unmarked) [MDPV, methylenedioxypyrvalerone], the EC50 (dopamine release; read-out: EC50 for DA release) is given as 100 nM.

In the case of CN1CCCC1c1cccnc1 (centres unmarked) [Nicotine], the EC50 (dopamine release; nucleus accumbens, read-out: EC50 dopamine release in the nucleus accumbens) is given as 480 nM.

For CC(N)Cc1ccccc1 (centres unmarked) [amphetamine, Amphetamine], the EC50 (dopamine release; read-out: EC50 for DA release) is listed as 500 nM.

In the case of CNC(C)C(=O)c1ccc(C)cc1 (centres unmarked) [mephedrone, Mephedrone], the EC50 (dopamine release; read-out: EC50 for DA release) is given as ~300 nM.

For CN[C@@H](C)Cc1ccccc1 [methamphetamine, Methamphetamine], the “agonist activity at unmodified chimeric receptor α7-5HT3” value (α7-5HT3 [4]) is listed as “do not show agonist activity”, the “blood concentration during self-administration” value ([5]; in females) is listed as 900 nM and the “blood concentration during self-administration” value ([5]; in males) is listed as 700 nM.

For CNC(C)C(=O)c1ccc2c(c1)OCO2 (centres unmarked) [methylone, Methylone], the EC50 (dopamine release; read-out: EC50 for DA release) is given as ~400 nM.

For COC(=O)C(c1ccccc1)C1CCCCN1 (centres unmarked) [methylphenidate, Methylphenidate], the EC50 (dopamine release; striatum, read-out: EC50 for release of DA in the striatum) is given as 10000 nM.
